Experimental data published in patent publication US20070042967A1, “Proteaseome inhibitors for the treatment of herpesviridae infected individuals” (priority 2002, published 2007).
Where a SMILES comes first, the peptide text is derived from it. The star is where a group is joined. Cbz = O=C(OCc1ccccc1)*

How the values were obtained:
[1] = system: HL-60 cells; test: Cytotoxic effects on HL-60 cells; type: cell-based; details: at 0.5 and 0.1 μg/ml
Description: Granulocyte/monocyte progenitor like HL-60 cells (ACC CCL 240) were grown in RPMI 1640 medium supplemented with 10% foetal calf serum (FCS, both from Biochrom, Germany and certified to be endotoxin free). Permissive human embryonal lung fibroblasts (HELF) were grown as monolayer in Dulbecco's modified Eagle's medium (BioWhittaker Europa, Belgium) containing 2.0% FCS. Virus stocks of HCMV strain AD169. of laboratory-derived ganciclovir (GCV)-resistant viruses XbaF 4-3-1 and 1117′ 3-1-2 (both are kindly provided from K. K. Biron, Burroughs Wellcome Colo.), HSV 1, strain K, and HSV 2, strain DG (both are patients isolates from the strain collection of this institute) were prepared from the supernatant of infected cell cultures and stored in liquid nitrogen. For standard plaque reduction assays as well as for experiments with immunoblot analysis HELF were seeded into 25 cm^2 cell culture flasks. For preparation of cytosolic and nuclear extracts cells were seeded into 100 cm^2 culture flasks. Generally, confluent monolayers were infected at an multiplicity of infection (m.o.i.) of 0.0002 for standard plaque reduction assay and a m.o.i. of 1 for immunoblot analysis, for preparation of cytosolic and nuclear extracts as well as for measurement of cytokine, chemokine and adhesion molecules in cell culture supernatant. […]

[2] = system: HCMV AD169; test: HCMV AD169 replication in human embryonal lung fibroblasts (CPE / IE staining, day 5 p.i.); type: cell-based, human cytomegalovirus
Text: Human embryonal lung fibroblasts (HELF), one of the target cells of HCMV in vivo, are fully permissive for HCMV replication in vitro. For infection experiments the laboratory adapted strain AD169 was propagated on HELFs. Virus stocks prepared from the overlay of infected cells showing 100% cytopathic effect (CPE) by ultra centrifugation were stored in liquid N2. Confluent HELF monolayer in 50 cm^2 flasks were infected with AD169 at a multiplicity of infection (M.O.I.) of 0.01. Adsorption of the virus was allowed for 1 hour at 37° C. After that the monolayer was overlayed with MEM containing 4.5% FCS. Medium was free of or substituted with the proteasome inhibitor at the indicated concentration. Virus cultures were cultivated for 5 days without changing the medium. On day five p.i. virus replication, was quantified by the number of CPE visible in inverse light microscope. For quantification cells were stained with an HCMV-specific antibody recognising the IE proteins IE1 and IE2 (clone E13, Harlan Sera-tab, Loughborough, GB, 1:5000), goat anti-mouse HRP-conjugated IgG (1:4000; Boehringer Mannheim, Indianapolis, Ind., USA) as secondary antibody and the AEC staining kit (Sigma, Germany) which gives a reed nuclear staining of infected cells.
Granulocyte/monocyte progenitor like HL-60 cells (ACC CCL 240) were grown in RPMI 1640 medium supplemented with 10% foetal calf serum (FCS, both from Biochrom, Germany and certified to be endotoxin free). Permissive human embryonal lung fibroblasts (HELF) were grown as monolayer in Dulbecco's modified Eagle's medium (BioWhittaker Europa, Belgium) containing 2.0% FCS. Virus stocks of HCMV strain AD169. of laboratory-derived ganciclovir (GCV)-resistant viruses XbaF 4-3-1 and 1117′ 3-1-2 (both are kindly provided from K. K. Biron, Burroughs Wellcome Colo.), HSV 1, strain K, and HSV 2, strain DG (both are patients isolates from the strain collection of this institute) were prepared from the supernatant of infected cell cultures and stored in liquid nitrogen. […]

CC(C)C[C@@H](C=O)NC(=O)[C@H](CC(C)C)NC(=O)[C@H](CC(C)C)NC(=O)OCc1ccccc1 [MG-132, N-carbobenzoxy-L-leucinyl-L-leucinyl-L-leucinal] (Cbz-Leu-Leu-Leu-aldehyde)
cytotoxic effects on HL-60 cells [1]: no cytotoxic effects | effect on virus replication ([2]; 0.01 μg/ml (0.016 μM), AD169, HELF): no effect | number of IE-positive cells per foci compared with the untreated control ([2]; 0.1 μg/ml (0.21 μM)): about 50% | number of virus-infected (IE-positive) cells per focus ([2]; 0.2 μg/ml (0.42 μM), untreated 50): 7 cells
